Assay results taken from paper PMC12203311, “Design, synthesis, in silico and in vitro evaluation of pyrrole–indole hybrids as dual tubulin and aromatase inhibitors with potent anticancer activities” (RSC Advances, 2025).

Experiments:
[1] = system: MALME-3M; experiment: NCI60 five-dose screen; assay type: cell-based; settings: Homo sapiens, melanoma; for CC50: read-out: LC50 (the source's name)
[2] = system: HL-60 (TB); experiment: NCI60 five-dose screen; assay type: cell-based; settings: Homo sapiens, leukemia; for CC50: read-out: LC50 (the source's name)
[3] = system: OVCAR-5; experiment: NCI60 five-dose screen; assay type: cell-based; settings: Homo sapiens, OVCAR-5, ovarian cancer; for CC50: read-out: LC50 (the source's name)
[4] = system: A498; experiment: NCI60 five-dose screen; assay type: cell-based; settings: Homo sapiens, A498, renal cancer; for CC50: read-out: LC50 (the source's name)
[5] = system: RXF 393; experiment: NCI60 five-dose screen; assay type: cell-based; settings: Homo sapiens, RXF 393, renal cancer; for CC50: read-out: LC50 (the source's name)
[6] = system: HS 578T; experiment: NCI60 five-dose screen; assay type: cell-based; settings: Homo sapiens, breast cancer; for CC50: read-out: LC50 (the source's name)
[7] = system: HCT-116; experiment: NCI60 five-dose screen; assay type: cell-based; settings: Homo sapiens, HCT-116, colon cancer; for CC50: read-out: LC50 (the source's name)
[8] = system: RPMI-8226; experiment: NCI60 five-dose screen; assay type: cell-based; settings: Homo sapiens, RPMI-8226, leukemia; for CC50: read-out: LC50 (the source's name)
[9] = system: TK-10; experiment: NCI60 five-dose screen; assay type: cell-based; settings: Homo sapiens, TK-10, renal cancer; for CC50: read-out: LC50 (the source's name)
[10] = system: UO-31; experiment: NCI60 five-dose screen; assay type: cell-based; settings: Homo sapiens, UO-31, renal cancer; for CC50: read-out: LC50 (the source's name)
[11] = system: CCRF-CEM; experiment: NCI60 five-dose screen; assay type: cell-based; settings: Homo sapiens, leukemia; for CC50: read-out: LC50 (the source's name)
[12] = system: SW-620; experiment: NCI60 five-dose screen; assay type: cell-based; settings: Homo sapiens, SW-620, colon cancer; for CC50: read-out: LC50 (the source's name)
[13] = system: HCC-2998; experiment: NCI60 five-dose screen; assay type: cell-based; settings: Homo sapiens, HCC-2998, colon cancer; for CC50: read-out: LC50 (the source's name)
[14] = system: T-47D; experiment: NCI60 five-dose screen; assay type: cell-based; settings: Homo sapiens, T47D, breast cancer; for CC50: read-out: LC50 (the source's name)
[15] = system: SK-OV-3; experiment: NCI60 five-dose screen; assay type: cell-based; settings: Homo sapiens, SK-OV-3, ovarian cancer; for CC50: read-out: LC50 (the source's name)
[16] = system: SK-MEL-28; experiment: NCI60 five-dose screen; assay type: cell-based; settings: Homo sapiens, SK-MEL-28, melanoma; for CC50: read-out: LC50 (the source's name)
[17] = system: T47D breast cancer cell line; experiment: Cytotoxicity MTT assay, T47D; assay type: cell-based, human; settings: Homo sapiens, T47D; MTT, 48 hours
How it was run: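 Both lines were handled identically: 10 000 cells per well, overnight growth, 48 h with compound at the chosen concentrations, then 0.5 mg mL^−1 MTT for 3 h. Dissolved formazan was quantified at 570 nm against vehicle-treated wells.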

[18] = system: SK-MEL-5; experiment: NCI60 five-dose screen; assay type: cell-based, human; settings: Homo sapiens; for CC50: SK-MEL-5, SK-MEL-5, melanoma, read-out: LC50 (the source's name); for GI50: SK-MEL-5, melanoma
[19] = system: K-562; experiment: NCI60 five-dose screen; assay type: cell-based; settings: Homo sapiens, K562, K-562, leukemia; for CC50: read-out: LC50 (the source's name)
[20] = system: MDA-MB-435; experiment: NCI60 five-dose screen; assay type: cell-based, human; settings: Homo sapiens; for CC50: MDA-MB-435, MDA-MB-435, melanoma, read-out: LC50 (the source's name); for GI50: MDA-MB-435, melanoma
[21] = system: IGROV1; experiment: NCI60 five-dose screen; assay type: cell-based; settings: Homo sapiens, IGROV-1; IGROV1, ovarian cancer
[22] = system: SK-MEL-2; experiment: NCI60 five-dose screen; assay type: cell-based; settings: Homo sapiens, SK-MEL-2, melanoma; for CC50: read-out: LC50 (the source's name)
[23] = system: MCF7; experiment: NCI60 five-dose screen; assay type: cell-based; settings: Homo sapiens, MCF7, breast cancer; for CC50: read-out: LC50 (the source's name)
[24] = system: U251; experiment: NCI60 five-dose screen; assay type: cell-based; settings: Homo sapiens, U-251, U251, CNS cancer; for CC50: read-out: LC50 (the source's name)
[25] = system: KM12; experiment: NCI60 five-dose screen; assay type: cell-based; settings: Homo sapiens, KM12, colon cancer; for CC50: read-out: LC50 (the source's name)
[26] = system: UACC-62; experiment: NCI60 five-dose screen; assay type: cell-based; settings: Homo sapiens, UACC-62, melanoma; for CC50: read-out: LC50 (the source's name)
[27] = system: MDA-MB-231/ATCC; experiment: NCI60 five-dose screen; assay type: cell-based; settings: Homo sapiens, breast cancer; for CC50: read-out: LC50 (the source's name)
[28] = system: SNB-75; experiment: NCI60 five-dose screen; assay type: cell-based; settings: Homo sapiens, SNB-75, CNS cancer; for CC50: read-out: LC50 (the source's name)
[29] = system: SF-539; experiment: NCI60 five-dose screen; assay type: cell-based; settings: Homo sapiens, SF-539, CNS cancer; for CC50: read-out: LC50 (the source's name)
[30] = system: OVCAR-3; experiment: NCI60 five-dose screen; assay type: cell-based; settings: Homo sapiens, OVCAR-3, ovarian cancer; for CC50: read-out: LC50 (the source's name)
[31] = system: NCI-H23; experiment: NCI60 five-dose screen; assay type: cell-based; settings: Homo sapiens, NCI-H23, NSC lung cancer; for CC50: read-out: LC50 (the source's name)

## O=C(N/N=C/c1cc(Br)c[nH]1)c1[nH]c2ccc(Br)cc2c1-c1ccccc1 [Derivative 3e, (E)-5-Bromo-N′-((4-bromo-1H-pyrrol-2-yl)methylene)-3-phenyl-1H-indole-2-carbohydrazide]
[1]
  GI50: 0.665 µM
  CC50: 32.5 µM
[2]
  GI50: 0.327 µM
  CC50: > 100 µM
[3]
  GI50: 0.346 µM
  CC50: 26.5 µM
[4]
  GI50: 5.47 µM
  CC50: 44.5 µM
[5]
  GI50: 0.497 µM
  CC50: 37.9 µM
[6]
  GI50: 0.34 µM
  CC50: > 100 µM
[7]
  GI50: 0.242 µM
  CC50: 85 µM
[8]
  GI50: 0.346 µM
  CC50: > 100 µM
[9]
  GI50: 4.21 µM
  CC50: 44.9 µM
[10]
  GI50: 0.618 µM
  CC50: 28.1 µM
[11]
  GI50: 0.341 µM
  CC50: > 100 µM
[12]
  GI50: 0.405 µM
  CC50: 59.4 µM
[13]
  GI50: 0.296 µM
  CC50: 15.6 µM
[14]
  GI50: 1.4 µM
  CC50: 82.5 µM
[15]
  GI50: 0.966 µM
  CC50: 53.8 µM
[16]
  GI50: 0.612 µM
  CC50: 43.9 µM
[17]
  IC50: 2.4 ± 1.4 µM
[18]
  CC50: 1.22 µM
  GI50: 0.195 µM
[19]
  GI50: 0.393 µM
  CC50: > 100 µM
[20]
  CC50: 24.3 µM
  GI50: 0.207 µM
[21]
  GI50: 0.44 µM
[22]
  GI50: 0.322 µM
  CC50: 38.1 µM
[23]
  GI50: 0.294 µM
  CC50: 30.7 µM
[24]
  GI50: 0.418 µM
  CC50: 10.1 µM
[25]
  GI50: 0.301 µM
  CC50: 16.3 µM
[26]
  GI50: 0.439 µM
  CC50: 17.7 µM
[27]
  GI50: 0.215 µM
  CC50: 14.3 µM
[28]
  GI50: 0.475 µM
  CC50: 51 µM
[29]
  GI50: 0.214 µM
  CC50: 25.5 µM
[30]
  GI50: 0.302 µM
  CC50: 17.3 µM
[31]
  GI50: 0.298 µM
  CC50: 26.9 µM

## O=C(N/N=C/c1cc(Br)c(Br)[nH]1)c1[nH]c2ccc(Br)cc2c1-c1ccccc1 [Derivative 3f, (E)-5-Bromo-N′-((4,5-dibromo-1H-pyrrol-2-yl)methylene)-3-phenyl-1H-indole-2-carbohydrazide]
[1]
  GI50: 2.97 µM
  CC50: 42.4 µM
[2]
  GI50: 2.38 µM
  CC50: 88.8 µM
[3]
  GI50: 3.6 µM
  CC50: 40.2 µM
[4]
  GI50: 11.1 µM
  CC50: 49.4 µM
[5]
  GI50: 1.55 µM
  CC50: 34.3 µM
[6]
  GI50: 1.82 µM
  CC50: > 100 µM
[7]
  GI50: 3.24 µM
  CC50: > 100 µM
[8]
  GI50: 2.27 µM
  CC50: > 100 µM
[9]
  GI50: 6.8 µM
  CC50: 49.5 µM
[10]
  GI50: 1.94 µM
  CC50: 38.5 µM
[11]
  GI50: 2.89 µM
  CC50: > 100 µM
[12]
  GI50: 2.96 µM
  CC50: 41.9 µM
[13]
  GI50: 2.3 µM
  CC50: 24 µM
[14]
  GI50: 3.84 µM
  CC50: 74.3 µM
[15]
  GI50: 4.76 µM
  CC50: 72.5 µM
[16]
  GI50: 5.1 µM
  CC50: 47 µM
[17]
  IC50: 19.1 ± 5.4 µM
[18]
  CC50: 8.65 µM
  GI50: 1.72 µM
[19]
  GI50: 1.93 µM
  CC50: 76.4 µM
[20]
  CC50: 19.6 µM
  GI50: 1.01 µM
[21]
  GI50: 0.53 µM
[22]
  GI50: 2.68 µM
  CC50: 36.3 µM
[23]
  GI50: 1.99 µM
  CC50: 33.7 µM
[24]
  GI50: 2.95 µM
  CC50: 36 µM
[25]
  GI50: 2.46 µM
  CC50: 35.3 µM
[26]
  GI50: 1.2 µM
  CC50: 38 µM
[27]
  GI50: 2.49 µM
  CC50: 26.3 µM
[28]
  GI50: 1.08 µM
  CC50: 64.4 µM
[29]
  GI50: 1.78 µM
  CC50: 15.7 µM
[30]
  GI50: 2.3 µM
  CC50: 24.5 µM
[31]
  GI50: 2.62 µM
  CC50: 34 µM
